Experimental data: ChEMBL document CHEMBL4507301 (2021)

Tests used:
Details in all cases: Compound concentration 1000.0 nM
[1] = molecular target: AP2-associated protein kinase 1 (Homo sapiens) (UniProt Q2M2I8)
[2] = tested on: Tyrosine-protein kinase ABL1 (Homo sapiens), P00519 [F317L]
[3] = tested on: Tyrosine-protein kinase ABL1 (Homo sapiens), P00519 [Q252H]
[4] = molecular target: Activin receptor type-1B (Homo sapiens) (UniProt P36896)
[5] = tested on: Serine/threonine-protein kinase B-raf (Homo sapiens), P15056 [V600E]
[6] = molecular target: Calcium/calmodulin-dependent protein kinase type 1D (Homo sapiens) (UniProt Q8IU85)
[7] = molecular target: Cyclin-dependent kinase 2 (Homo sapiens) (UniProt P24941)
[8] = molecular target: Cyclin-dependent kinase 4 (Homo sapiens) (UniProt P11802)
Sequence of Cyclin-dependent kinase 4 (Homo sapiens) (P11802 whole entry): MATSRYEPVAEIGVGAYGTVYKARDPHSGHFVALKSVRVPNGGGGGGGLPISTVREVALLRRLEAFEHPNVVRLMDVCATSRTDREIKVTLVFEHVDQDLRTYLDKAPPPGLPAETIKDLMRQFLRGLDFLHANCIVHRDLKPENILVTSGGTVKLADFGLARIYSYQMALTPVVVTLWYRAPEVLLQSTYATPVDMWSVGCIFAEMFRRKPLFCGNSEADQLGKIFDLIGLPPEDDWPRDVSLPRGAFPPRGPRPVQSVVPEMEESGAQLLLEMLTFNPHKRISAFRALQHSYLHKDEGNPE

[9] = molecular target: Cyclin-dependent kinase 5 (Homo sapiens) (UniProt Q00535)
[10] = molecular target: Dual specificity protein kinase CLK1 (Homo sapiens) (UniProt P49759)
[11] = molecular target: Death-associated protein kinase 2 (Homo sapiens) (UniProt Q9UIK4)
Sequence of Death-associated protein kinase 2 (Homo sapiens) (Q9UIK4 whole entry, looked up): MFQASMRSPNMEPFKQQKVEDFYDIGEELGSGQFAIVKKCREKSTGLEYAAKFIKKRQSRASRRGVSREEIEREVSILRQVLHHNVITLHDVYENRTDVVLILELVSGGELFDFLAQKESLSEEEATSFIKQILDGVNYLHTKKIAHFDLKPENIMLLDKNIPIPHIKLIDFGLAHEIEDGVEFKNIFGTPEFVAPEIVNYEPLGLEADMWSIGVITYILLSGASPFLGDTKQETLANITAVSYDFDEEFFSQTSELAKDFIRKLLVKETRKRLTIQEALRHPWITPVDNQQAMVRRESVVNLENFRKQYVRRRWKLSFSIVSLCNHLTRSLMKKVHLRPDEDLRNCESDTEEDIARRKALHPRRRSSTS

[12] = molecular target: Myotonin-protein kinase (Homo sapiens) (UniProt Q09013)
[13] = tested on: Epidermal growth factor receptor (Homo sapiens), P00533 [G719S]
[14] = molecular target: Ephrin type-A receptor 6 (Homo sapiens) (UniProt Q9UF33)
[15] = molecular target: Fibroblast growth factor receptor 4 (Homo sapiens) (UniProt P22455)
[16] = molecular target: Homeodomain-interacting protein kinase 2 (Homo sapiens) (UniProt Q9H2X6)
Sequence of Homeodomain-interacting protein kinase 2 (Homo sapiens) (Q9H2X6 whole entry, looked up): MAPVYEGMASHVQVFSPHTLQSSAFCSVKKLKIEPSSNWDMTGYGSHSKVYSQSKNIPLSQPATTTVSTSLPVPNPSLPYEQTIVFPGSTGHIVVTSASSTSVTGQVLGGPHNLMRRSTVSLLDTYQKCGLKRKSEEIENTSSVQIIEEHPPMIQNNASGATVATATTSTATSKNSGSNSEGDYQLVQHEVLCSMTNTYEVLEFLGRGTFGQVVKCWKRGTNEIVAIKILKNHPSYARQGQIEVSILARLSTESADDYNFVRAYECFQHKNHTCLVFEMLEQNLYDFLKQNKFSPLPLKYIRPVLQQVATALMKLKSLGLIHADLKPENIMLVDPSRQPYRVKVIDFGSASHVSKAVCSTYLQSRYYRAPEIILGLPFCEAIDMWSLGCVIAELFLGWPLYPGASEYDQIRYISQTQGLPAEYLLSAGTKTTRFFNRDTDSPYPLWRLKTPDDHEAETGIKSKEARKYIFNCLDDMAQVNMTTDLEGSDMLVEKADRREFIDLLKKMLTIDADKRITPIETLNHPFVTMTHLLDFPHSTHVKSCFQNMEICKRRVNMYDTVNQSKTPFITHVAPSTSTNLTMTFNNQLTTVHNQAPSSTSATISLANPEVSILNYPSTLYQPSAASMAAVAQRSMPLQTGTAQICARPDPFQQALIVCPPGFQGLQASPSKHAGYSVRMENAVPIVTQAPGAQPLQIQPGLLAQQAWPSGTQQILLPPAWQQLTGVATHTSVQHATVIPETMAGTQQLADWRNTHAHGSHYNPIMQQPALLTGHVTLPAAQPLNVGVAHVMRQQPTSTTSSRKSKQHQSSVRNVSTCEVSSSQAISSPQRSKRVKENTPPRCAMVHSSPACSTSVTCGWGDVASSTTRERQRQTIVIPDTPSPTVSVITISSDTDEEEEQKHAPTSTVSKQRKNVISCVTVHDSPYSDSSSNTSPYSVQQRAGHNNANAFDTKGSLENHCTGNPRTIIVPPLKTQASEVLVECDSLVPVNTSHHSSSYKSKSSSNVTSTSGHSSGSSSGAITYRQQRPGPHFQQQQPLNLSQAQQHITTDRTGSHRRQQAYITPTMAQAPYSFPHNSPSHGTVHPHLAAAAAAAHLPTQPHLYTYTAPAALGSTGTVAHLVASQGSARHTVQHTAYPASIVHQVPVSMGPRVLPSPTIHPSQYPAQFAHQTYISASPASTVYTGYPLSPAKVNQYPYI

[17] = molecular target: Interleukin-1 receptor-associated kinase 1 (Homo sapiens) (UniProt P51617)
[18] = molecular target: Interleukin-1 receptor-associated kinase 3 (Homo sapiens) (UniProt Q9Y616)
[19] = molecular target: Mast/stem cell growth factor receptor Kit (Homo sapiens) (UniProt P10721)
[20] = tested on: Mast/stem cell growth factor receptor Kit (Homo sapiens), P10721 [L576P]
[21] = tested on: Mast/stem cell growth factor receptor Kit (Homo sapiens), P10721 [V559D]
[22] = tested on: Mast/stem cell growth factor receptor Kit (Homo sapiens), P10721 [V559D,V654A]
[23] = molecular target: Leucine-rich repeat serine/threonine-protein kinase 2 (Homo sapiens) (UniProt Q5S007)
[24] = molecular target: Mitogen-activated protein kinase kinase kinase 1 (Homo sapiens) (UniProt Q13233)
[25] = molecular target: Mitogen-activated protein kinase kinase kinase kinase 3 (Homo sapiens) (UniProt Q8IVH8)
[26] = molecular target: Mitogen-activated protein kinase kinase kinase kinase 5 (Homo sapiens) (UniProt Q9Y4K4)
Sequence of Mitogen-activated protein kinase kinase kinase kinase 5 (Homo sapiens) (Q9Y4K4 whole entry, looked up): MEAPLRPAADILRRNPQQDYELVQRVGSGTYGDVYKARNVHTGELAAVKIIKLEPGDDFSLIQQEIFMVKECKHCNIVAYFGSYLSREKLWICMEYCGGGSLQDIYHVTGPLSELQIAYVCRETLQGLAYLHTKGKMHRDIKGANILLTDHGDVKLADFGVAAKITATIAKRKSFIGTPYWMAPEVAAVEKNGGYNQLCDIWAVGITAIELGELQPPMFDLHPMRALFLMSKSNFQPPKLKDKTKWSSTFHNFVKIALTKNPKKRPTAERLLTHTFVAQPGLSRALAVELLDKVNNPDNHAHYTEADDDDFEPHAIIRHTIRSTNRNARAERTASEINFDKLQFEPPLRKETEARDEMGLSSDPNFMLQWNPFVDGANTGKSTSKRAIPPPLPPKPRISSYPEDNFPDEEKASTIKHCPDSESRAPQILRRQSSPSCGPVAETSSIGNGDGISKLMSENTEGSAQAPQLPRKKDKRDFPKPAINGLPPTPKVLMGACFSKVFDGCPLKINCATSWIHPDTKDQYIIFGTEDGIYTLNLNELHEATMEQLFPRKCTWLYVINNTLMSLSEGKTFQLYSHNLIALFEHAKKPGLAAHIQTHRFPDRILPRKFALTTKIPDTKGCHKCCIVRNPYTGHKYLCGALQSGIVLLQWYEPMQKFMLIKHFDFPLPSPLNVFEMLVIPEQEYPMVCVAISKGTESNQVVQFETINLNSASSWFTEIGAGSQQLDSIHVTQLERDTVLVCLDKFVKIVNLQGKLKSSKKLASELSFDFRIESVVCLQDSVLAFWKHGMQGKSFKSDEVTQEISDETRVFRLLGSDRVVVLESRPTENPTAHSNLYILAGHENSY

[27] = molecular target: Dual specificity mitogen-activated protein kinase kinase 2 (Homo sapiens) (UniProt P36507)
[28] = molecular target: Mitogen-activated protein kinase kinase kinase 9 (Homo sapiens) (UniProt P80192)
Sequence of Mitogen-activated protein kinase kinase kinase 9 (Homo sapiens) (P80192 whole entry, looked up): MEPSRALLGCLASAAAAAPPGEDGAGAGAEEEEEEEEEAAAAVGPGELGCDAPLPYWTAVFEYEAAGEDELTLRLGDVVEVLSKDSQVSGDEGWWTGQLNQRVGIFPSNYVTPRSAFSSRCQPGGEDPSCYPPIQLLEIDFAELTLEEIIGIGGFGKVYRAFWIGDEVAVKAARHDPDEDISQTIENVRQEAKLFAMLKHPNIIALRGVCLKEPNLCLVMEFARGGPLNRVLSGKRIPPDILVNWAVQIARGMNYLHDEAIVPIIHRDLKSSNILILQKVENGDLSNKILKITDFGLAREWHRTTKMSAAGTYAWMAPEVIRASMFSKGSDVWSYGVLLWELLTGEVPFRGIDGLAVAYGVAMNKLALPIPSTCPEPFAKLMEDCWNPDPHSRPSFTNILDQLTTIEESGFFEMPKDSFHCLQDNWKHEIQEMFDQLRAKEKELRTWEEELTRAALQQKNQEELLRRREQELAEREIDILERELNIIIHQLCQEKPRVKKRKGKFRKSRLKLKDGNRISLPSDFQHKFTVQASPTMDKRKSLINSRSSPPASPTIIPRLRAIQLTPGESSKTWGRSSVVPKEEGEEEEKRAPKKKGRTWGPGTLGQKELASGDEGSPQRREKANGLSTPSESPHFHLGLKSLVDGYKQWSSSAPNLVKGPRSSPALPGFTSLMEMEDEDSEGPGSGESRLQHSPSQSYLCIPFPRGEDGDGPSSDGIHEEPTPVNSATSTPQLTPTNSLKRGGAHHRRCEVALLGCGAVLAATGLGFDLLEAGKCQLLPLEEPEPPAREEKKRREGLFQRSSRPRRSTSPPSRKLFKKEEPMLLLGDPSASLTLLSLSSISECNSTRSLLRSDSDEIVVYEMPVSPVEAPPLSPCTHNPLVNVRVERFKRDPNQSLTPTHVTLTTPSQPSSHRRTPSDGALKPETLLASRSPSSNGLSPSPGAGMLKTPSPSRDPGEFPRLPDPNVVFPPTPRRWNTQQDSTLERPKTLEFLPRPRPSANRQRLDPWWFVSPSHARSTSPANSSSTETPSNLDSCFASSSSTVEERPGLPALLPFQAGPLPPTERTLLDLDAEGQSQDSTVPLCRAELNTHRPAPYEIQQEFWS

[29] = molecular target: Serine/threonine-protein kinase 4 (Homo sapiens) (UniProt Q13043)
[30] = molecular target: Platelet-derived growth factor receptor alpha (Homo sapiens) (UniProt P16234)
[31] = molecular target: Platelet-derived growth factor receptor beta (Homo sapiens) (UniProt P09619)
[32] = molecular target: Phosphatidylinositol 3-kinase C2 domain-containing subunit gamma (Homo sapiens) (UniProt O75747)
[33] = tested on: Phosphatidylinositol 4,5-bisphosphate 3-kinase catalytic subunit alpha isoform (Homo sapiens), P42336 [H1047L]
Sequence of Phosphatidylinositol 4,5-bisphosphate 3-kinase catalytic subunit alpha isoform (Homo sapiens), P42336 [H1047L] (P42336 whole entry H1047L, canonical isoform): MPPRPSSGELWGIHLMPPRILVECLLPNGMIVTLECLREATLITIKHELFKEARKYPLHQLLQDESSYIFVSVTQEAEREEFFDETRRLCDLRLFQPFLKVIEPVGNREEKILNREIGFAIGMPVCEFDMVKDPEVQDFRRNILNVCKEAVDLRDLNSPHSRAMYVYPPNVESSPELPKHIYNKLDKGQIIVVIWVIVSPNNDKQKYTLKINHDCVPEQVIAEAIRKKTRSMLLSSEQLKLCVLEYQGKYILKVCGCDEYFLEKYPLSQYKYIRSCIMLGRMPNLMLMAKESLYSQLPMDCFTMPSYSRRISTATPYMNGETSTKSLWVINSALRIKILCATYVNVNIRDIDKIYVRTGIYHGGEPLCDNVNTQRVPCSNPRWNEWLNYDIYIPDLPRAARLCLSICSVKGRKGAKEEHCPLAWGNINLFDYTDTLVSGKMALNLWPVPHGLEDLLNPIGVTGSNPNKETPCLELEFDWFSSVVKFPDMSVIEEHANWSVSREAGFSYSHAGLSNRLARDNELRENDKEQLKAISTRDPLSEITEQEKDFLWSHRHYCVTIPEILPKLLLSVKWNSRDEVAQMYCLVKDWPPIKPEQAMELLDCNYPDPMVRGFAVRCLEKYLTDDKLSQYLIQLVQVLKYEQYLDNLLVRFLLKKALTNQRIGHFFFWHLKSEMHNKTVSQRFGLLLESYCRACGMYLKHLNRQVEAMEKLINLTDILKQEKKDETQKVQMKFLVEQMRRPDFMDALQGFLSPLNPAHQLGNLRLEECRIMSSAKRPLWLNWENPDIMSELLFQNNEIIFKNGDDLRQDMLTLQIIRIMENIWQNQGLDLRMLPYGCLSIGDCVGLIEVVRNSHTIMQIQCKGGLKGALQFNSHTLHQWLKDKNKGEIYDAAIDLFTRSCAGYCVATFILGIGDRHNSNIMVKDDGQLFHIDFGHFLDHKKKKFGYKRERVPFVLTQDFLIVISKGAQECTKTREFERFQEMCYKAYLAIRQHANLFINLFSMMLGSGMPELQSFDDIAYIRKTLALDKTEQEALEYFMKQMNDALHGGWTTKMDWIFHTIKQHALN

[34] = molecular target: Serine/threonine-protein kinase pim-3 (Homo sapiens) (UniProt Q86V86)
[35] = molecular target: Phosphatidylinositol 4-phosphate 5-kinase type-1 gamma (Homo sapiens) (UniProt O60331)
[36] = molecular target: Interferon-induced, double-stranded RNA-activated protein kinase (Homo sapiens) (UniProt P19525)
[37] = molecular target: Serine/threonine-protein kinase SIK3 (Homo sapiens) (UniProt Q9Y2K2)
[38] = tested on: Proto-oncogene tyrosine-protein kinase receptor Ret (Homo sapiens), P07949 [V804M]
[39] = molecular target: Receptor-interacting serine/threonine-protein kinase 2 (Homo sapiens) (UniProt O43353)
[40] = molecular target: Rho-associated protein kinase 1 (Homo sapiens) (UniProt Q13464)
[41] = molecular target: Serine/threonine-protein kinase Sgk1 (Homo sapiens) (UniProt O00141)
[42] = molecular target: Serine/threonine-protein kinase TAO1 (Homo sapiens) (UniProt Q7L7X3)
[43] = molecular target: Testis-specific serine/threonine-protein kinase 1 (Homo sapiens) (UniProt Q9BXA7)
[44] = molecular target: Serine/threonine-protein kinase ULK1 (Homo sapiens) (UniProt O75385)
[45] = molecular target: Vascular endothelial growth factor receptor 2 (Homo sapiens) (UniProt P35968)

Measured: residual activity

C[C@H](c1cccc(C#N)c1)n1cc(Cl)cc(C(N)=O)c1=N [(R)-9s]
inactive: [1] 100% | [2] 75% | [3] 100% | [4] 100% | [5] 100% | [6] 97% | [7] 100% | [8] 96% | [9] 100% | [10] 100% | [11] 100% | [12] 100% | [13] 100% | [14] 86% | [15] 87% | [16] 100% | [17] 71% | [18] 99% | [19] 87% | [20] 93% | [21] 83% | [22] 96% | [23] 100% | [24] 90% | [25] 76% | [26] 100% | [27] 80% | [28] 95% | [29] 100% | [30] 94% | [31] 83% | [32] 88% | [33] 92% | [34] 100% | [35] 99% | [36] 100% | [37] 100% | [38] 100% | [39] 66% | [40] 71% | [41] 77% | [42] 90% | [43] 96% | [44] 78% | [45] 88%

C[C@@H](c1cccc(C#N)c1)n1cc(Cl)cc(C(N)=O)c1=N [(S)-9s]
inactive: [1] 100% | [2] 85% | [3] 68% | [4] 100% | [5] 95% | [6] 98% | [7] 100% | [8] 91% | [9] 92% | [10] 100% | [11] 100% | [12] 100% | [13] 100% | [14] 91% | [15] 100% | [16] 100% | [17] 76% | [18] 99% | [19] 93% | [20] 86% | [21] 93% | [22] 99% | [23] 100% | [24] 82% | [25] 100% | [26] 96% | [27] 76% | [28] 100% | [29] 100% | [30] 100% | [31] 84% | [32] 84% | [33] 96% | [34] 100% | [35] 100% | [36] 100% | [37] 94% | [38] 89% | [39] 88% | [40] 71% | [41] 100% | [42] 89% | [43] 100% | [44] 72% | [45] 73%
